Test results: patent US20220062205A1, “TREATMENT OF GASTROINTESTINAL DISORDERS AND SYMPTOMS THEREOF” (Indiana University Research and Technology Corporation, priority 2018, published 2022)

What was measured:
Assay type in all cases: in vivo, mouse
[1] = test system: Winnie mice; assay: Immunohistochemistry and histology of distal colon (cross sections and LMMP)
Description: The small molecular APE1/Ref-1 antagonist; APX3330, was administered via IP injections in Winnie mice at a dose of 25 mg/kg (30 G needle, max volume 200 μl) dissolved in Cremphore (2%) (Sigma-Aldrich): Ethanol (2%) in sterile water (96%). Mice received alternating IP injections twice a day with 12-hour intervals, over the course of two weeks during predominate intestinal inflammation. Winnie-sham treated mice received vehicle injections excluding APX3330 drugs. All mice were monitored, weighed and faecal pellets were collected over the course of treatment.
Distal colon tissues were harvested in oxygenated physiological saline, flushed of faecal content and cut along the mesenteric border. Tissues were pinned down with mucosal side upwards in a Slygard-lined petri dish and were briefly fixed with Zamboni's fixative (2% formaldehyde containing 0.2% picric acid) over night at 4° C. Zamboni's fixative was removed by a serial of washes (3×10 minutes) with dimethyl sulfoxide (DMSO) (Sigma-Aldrich, Sydney, Australia) followed by (3×10 minutes) with 1× phosphate buffered solution (PBS). Tissues were processed for cross sections wholemount longitudinal muscle-myenteric preparations (LMMP). For histological staining, β-tubulin III and α-Smooth muscle actin (SMA) labelling distal colon tissues were pinned and fixed as above without stretching and stored in 50:50 optimum cutting temperature (OCT) compound (Tissue Tek, CA, USA) and frozen in liquid nitrogen-cooled isopentane and OCT and stored at −80° C. until cryo-sectioned (20 μm) onto glass slides for immunohistochemistry (IHC). For immunolabeling glial fibrillary acidic protein (GFAP), microtubule associated protein-2 (MAP2), HMGB1 and APE1, the distal colon LMMPs were stretched to maximum capacity without tearing in Slygard-lined petri dishes and were subjected to fixation and washes as above. To expose the myenteric plexus, removal of mucosa, submucosa and circular muscle was performed prior to IHC.
Immunohistochemistry (IHC) was completed. Specimens were subjected to a one hour incubation at room temperature with 10% normalised donkey serum (NDS) (Merck Millipore, Australia) prior to labelling with primary antibodies (Table 2) in distal colon cross sections and LMMPs. Sections and preparation were washed with 1×PBS (3×10 minutes) and then briefly incubated with fluorophore-conjugated secondary antibodies (Table 2). All specimens were stained with 4′,6′-diamindino-2-pheylindole dihydrochloride (DAPI) to identify immunoreactive cells. Tissues were mounted on glass slides with fluorescent mounting medium (DAKO, North, Sydney, NSW, Australia Tissues for histology were cryo-sectioned at 10 μm, cleared and rehydrated in graded ethanol concentration. For standard hematoxylin and eosin stain (H&E) and Alcian blue stain, sections were immersed in histolene (3×4 minutes), 100% ethanol (2 minutes), 95% ethanol (2 minutes), 70% ethanol (2 minutes), rinsed in tap water (30 seconds), then in hematoxylin (Sigma-Aldrich) (1 minute) or Alcian blue (Sigma-Aldrich) (30 minutes), rinsed in tap water, immersed in Scott's tap water (1 minute) and eosin (Sigma-Aldrich) (5 minutes), rinsed in tap water, immersed in 100% ethanol (2×1 minute) and histolene (4 minutes) and finally mounted on glass slides with DPX mountant. A histological grading system evaluated gross morphological damage on constraints inclusive of mucosal flattening (0=normal, 3=severe flattening), manifestations of haemorrhagic sites (0=none, 3=frequent), damage or distortion to circular muscle (0=normal, 3=substantial thickening and disorganization of muscle layer) and loss to goblet cells (0=none, 3=depleted cells). All slides were coded, and analysis was performed blindly.
Confocal microscopy (Nikon Eclipse Ti multichannel confocal laser scanning system, Nikon, Japan) acquired immunolabelled sections. […]

[2] = test system: Winnie mice; assay: RNA sequencing of pooled distal colon; conditions: n=6, relative to control C57BL/6 mice
Description: The small molecular APE1/Ref-1 antagonist; APX3330, was administered via IP injections in Winnie mice at a dose of 25 mg/kg (30 G needle, max volume 200 μl) dissolved in Cremphore (2%) (Sigma-Aldrich): Ethanol (2%) in sterile water (96%). Mice received alternating IP injections twice a day with 12-hour intervals, over the course of two weeks during predominate intestinal inflammation. Winnie-sham treated mice received vehicle injections excluding APX3330 drugs. All mice were monitored, weighed and faecal pellets were collected over the course of treatment. Control C57BL/6, Winnie-sham treated and Winnie-APX3330 fresh colon tissues were collected and snap frozen into liquid nitrogen. Samples were then sent to the Australian Genome Research Facility (AGRF) where next generation sequencing (NGS) was completed. NGS will be carried out by removing 2-3 μg of RNA per sample (≥100 ng/μl). The integrity of the RNA will be assessed by a Bioanalyzer as samples are to have a RNA integrity number (RIN) value of ≥8.0. The RNA samples went through a DNase treatment ready for library preparation. […] Samples underwent quality and adapter trimming, alignment, quantification and normalization. […] Final data obtained from AGRF were analysed and interpreted to determine APE1/Ref-1 associated pathways.

[3] = test system: Winnie mice; assay: Ex vivo whole organ bath colonic motility of colons from treated mice; conditions: excised whole colons of treated Winnie mice; mean±SEM, n=5
Description: The small molecular APE1/Ref-1 antagonist; APX3330, was administered via IP injections in Winnie mice at a dose of 25 mg/kg (30 G needle, max volume 200 μl) dissolved in Cremphore (2%) (Sigma-Aldrich): Ethanol (2%) in sterile water (96%). Mice received alternating IP injections twice a day with 12-hour intervals, over the course of two weeks during predominate intestinal inflammation. Winnie-sham treated mice received vehicle injections excluding APX3330 drugs. All mice were monitored, weighed and faecal pellets were collected over the course of treatment. Colonic motility experiments were completed ex vivo. Whole colons were removed from control C57BL/6, Winnie-sham treated and Winnie-APX3330 treated mice. Colons were positioned horizontally cannulated at the oral and anal end in an organ bath superfused with carbogenated (composition in mM: NaCl 118, KCl 4.6, CaCl2 3.5, MgSO4 1.2, NAH2PO4 1, NaHCO3 25 and d-Glucose; carbongenated with 95% O2 and 5% CO2) ×1 Krebs solution whilst maintained at a temperature of 37° C. The oral cannula was connected to a reservoir with 1× Krebs solution that was adjusted to maintain intraluminal pressure (0 to +2 cm H2O). The anal end was coupled to an out-flow tube with a maximum 2 cm H2O backpressure. A recording was made by a video camera being positioned above the organ bath, this recorded the colonic contractile activity. Tissue were left to equilibrate for 30 minutes prior to 2× 20-minute recordings at increasing intraluminal pressure. Videos were transposed into spatiotemporal maps with Scribble v2.0 software and were analysed by using MATLAB, v2017a software to assess parameters of colonic motility.

[4] = LMMP distal colon, mean±SEM, n=6
[5] = distal colon cross sections, mean±SEM, n=5

SMILES: CCCCCCCCCC(=CC1=C(C)C(=O)C(OC)=C(OC)C1=O)C(=O)O [APX3330]
- goblet cell density ([1]; Alcian blue, distal colon mucosa, mean±SEM, n=4): 46.5±4.3%
- histological grading ([1]; H&E / Alcian blue colon cross sections, mean±SEM, n=5): 4.8±0.7
- APE1 intensity (immunoreactivity density) in the myenteric ganglia ([1]; LMMP colon, mean±SEM, n=4): 6.0±1.4%
- expression of Oxo-8dG-IR (oxidative DNA damage) in myenteric ganglia [1, 4]: 2.0±0.9%
- number of myenteric neurons IR for Oxo-8dG [1, 4]: 0.9±0.7
- number of APE1-IR cells ([1]; LMMP, compared to control C57BL/6 and Winnie-sham (P<0.01)): significantly decreased
- gross morphology of the colon (H&E stain) ([1]; colon cross sections of treated Winnie mice): attenuate damage to the colon
- size of α-SMA-immunoreactive smooth muscle cells to nuclear size ([1]; distal colon cross sections, circular muscle, mean±SEM, n=5): 75.7±6.4%
- number of α-SMA-IR smooth muscle cells within the circular muscle [1, 5]: 45.2±3.1
- β-tubulin (III)-IR nerve fibre density [1, 5]: 13.3±0.8
- proportional number of MAP2-IR myenteric neurons ([1]; myenteric ganglia, LMMP distal colon, mean±SEM, n=7): 31.9±2.2%
- number of cells with HMGB1 translocation into the cytosol ([1]; myenteric ganglia, LMMP, mean±SEM, n=4): 0.9±0.3
- GFAP-IR glial cell density relative to ganglion area ([1]; myenteric plexus, LMMP distal colon, mean±SEM, n=4): 64.2±8.8%
- down regulation (fold change) of RNA expression of S100a8, Khdc1a, Lrg1, Retnlb, Nos2, Ido1 and REG3B [2]: > 2
- proportional length of colonic migrating motor complexes (CMMCs) [3]: 73±1.0%
- proportional short contraction length (<50% of colon length) [3]: 33.9±3.8%
- total length of colonic contractions relative to total colon length [3]: 62.3±2.4%
